Measurements as given in US11414374B2, “Crystalline forms of vilanterol trifenatate and processes for their preparation” (Hovione Scientia Limited, priority 2017, dated 2022).
Converted amounts (≈) assume the structure as drawn. “Also recorded” adds a separate entry of the source. Like-named read-outs stand apart in the source and are kept apart here. Blank lines part the entries; values can stand above or below the compound they belong to.

Columns and labels:
Format in all cases: physicochemical
[1] = Micronization in fluid energy jet mill: particle size distribution and XRPD of product; details: for XRPD of micronized product versus starting material: after fluid energy jet milling
Text: Vilanterol trifenatate form II is fed to a fluid energy jet mill at 10-100 g/h, operated with N2 at a pressure of 1 to 8 bar for the venturi and a pressure of 1 to 8 bar for the ring.

[2] = Visual solubility in differing solvents (European Pharmacopeia 6.0 section 5.11); details: for solubility at 15 min: organic solvent or mixture, thermodynamic from solid; for visual solubility in water: water at 75° C.
Method: Visual solubility of certain forms (compounds) in differing solvents was assessed according to the procedure described in the European Pharmacopeia 6.0 section 5.11. p. The compound was shaken vigorously for 1 min and placed in a constant temperature device for 15 min at 25.0±0.5° C. If the compound was not completely dissolved, the shaking was repeated for 1 min and the tube placed in a constant temperature device for 15 min. 50 mg of compound was weighed in a stoppered tube, 0.05 mL of the solvent added and the Dissolving Procedure (see above) followed. If the compound was completely dissolved, it is very soluble. If the compound was not completely dissolved, a further 0.45 mL of the solvent was added and the Dissolving Procedure (see above) followed. […] If the compound was still not completely dissolved, still further 1.0 mL of the solvent was added and the Dissolving Procedure (see above) followed. If the compound was completely dissolved, it is soluble. If the compound was still not completely dissolved, another 3.5 mL of the solvent was added and the Dissolving Procedure (see above) followed. […] If the compound was still not completely dissolved, the compound is slightly soluble or very slightly soluble. In this case, and the suspension was heated up to the boiling point (max 80° C.) under stirring to verify the solubility at high temperature. The hot solution was afterwards cooled to room temperature to observe whether the compound precipitates. If the compound at room temperature was completely dissolved, it is soluble at high temperature. [table]

[3] = Storage stability of exposed powder at 25° C. and 60% RH for seven days, compared by XRPD; details: 60% RH and 25° C. for 7 days, exposed powder
Method: Approximately 30 mg of exposed powder of comparative form 1 and new forms II and III, respectively, were stored at 25′C and 60% RH for seven days. Each powder was then analyzed by XRPD and its diffraction pattern was compared with that of untreated sample.

[4] = Dynamic vapor sorption (DVS) analysis / hygroscopicity (EP 7.0 classification); details: for hygroscopicity classification according to the European Pharmacopoeia (EP, version 7.0) / mass increase by dynamic vapor sorption analysis (hygroscopicity): 80% RH and 25° C.; for mass increase by dynamic vapor sorption analysis (hygroscopicity): first sorption cycle, relative to 40% RH; for stability / XRPD pattern after DVS analysis: compared with untreated sample; for Change In Mass (%) Desorption / Change In Mass (%) Hysteresis / Change In Mass (%) Sorption: DVS, 25° C.
Method: The hygroscopicity value is directly obtained from the sorption row at 80% RH, cycle 1.
Hygroscopicity of a sample of each of new form II and comparative form I was determined using the protocol provided below in conditions of 80% RH and 25° C.
The sample was subjected to DVS measuring using SMS-DVS intrinsic. The kinetic moisture sorption measurement was performed at 25° C. and in a RH % range described in the following: • From 40% RH to 90% RH • Form 90% RH to 0% RH • From 0% RH to 90% RH • From 90% RH to 0% RH
The sample was analyzed by XRPD after the analysis.
The hygroscopicity was calculated using the following equation: % Weight Change=[(W2−W1)/W1]*100 W1: weight of sample at the start of the experiment (25° C. and 40% RH) W2: weight of sample at 25° C. and 80% RH in the first absorption cycle

[5] = DSC - differential scanning calorimetry; details: for DSC (onset) endo. degradation: endothermic event: degradation; for DSC (onset) endo. melting: endothermic event: melting; for DSC (onset) endo. solvent loss: endothermic event: solvent loss
Method: The analysis was carried out using a DSC Q200 TA instruments equipped with a refrigerator cooling system (RCS40) and autosampler. The sample was weighed in an aluminum hermetic pan with pinhole. The analysis was performed heating the sample from 25° C. to 350° C. at 10° C./min.

[6] = Stability test (sealed vial 18 h), form by XRPD; details: resulting form
[7] = TGA / TGA-EGA thermogravimetric analysis with evolved gas analysis; details: for EGA: evolved solvent identified; for TGA overall weight loss: overall loss of the named solvent(s)
Method: The analysis was carried out using the Mettler Toledo TGA/DSC1. The sample was weighed in an aluminum pan hermetically sealed with an aluminum pierced cover. The analysis was performed heating the sample from 25° C. to 320° C. at 10° C./min. TGA-FTIR coupled with Thermo Nicoled is 10 spectometer. The analysis was carried out using the mettler toledo TGA/DSC1. The sample was weighed in an aluminum pan hermetically sealed with an aluminum pierced cover. The analysis was performed heating the sample from 25° C. to 320° C. at 10° C./min. The evolved gas is compared with ft-ir spectra database for identification.

[8] = Stability test (exposed sample 16 h), form by XRPD; details: resulting form

DSC (onset) endo. degradation ([5]; listed as Form 13): endo. 189 °C
DSC (onset) endo. melting ([5]; listed as Form 13): endo. 105 °C
DSC (onset) exo. recrystallization ([5]; exothermic event: recrystallization): exo. 93 °C
Stability test (sealed vial 18 h) ([6]; listed as Form 13): Form 12 (almost
TGA overall weight loss ([7]; listed as Form 13): One loss of 34% w/w
Stability test (exposed sample 16 h) ([8]; listed as Form 13): Form 12
SMILES: OCc1cc([C@@H](O)CNCCCCCCOCCOCc2c(Cl)cccc2Cl)ccc1O [form XIII, vilanterol trifenatate]

DSC (onset) endo. solvent loss + melting ([5]; endothermic event: solvent loss + melting (Form 6: + Form 2 melting; Form 14: + Form 3 melting), listed as Form 14): endo. 80 °C solvent
DSC (onset) endo. solvent loss ([5]; listed as Form 14): endo. 58 °C solvent loss
Stability test (sealed vial 18 h) ([6]; listed as Form 14): Form 3 (almost
EGA ([7]; listed as Form 14): Methylcyclohexane
TGA overall weight loss ([7]; listed as Form 14): loss of 26% w/w
Stability test (exposed sample 16 h) ([8]; listed as Form 14): Form 3
SMILES: OCc1cc([C@@H](O)CNCCCCCCOCCOCc2c(Cl)cccc2Cl)ccc1O [form XIV, vilanterol trifenatate]

Continued, compound first:

SMILES: OCc1cc([C@@H](O)CNCCCCCCOCCOCc2c(Cl)cccc2Cl)ccc1O [form I, 4-((1R)-2-((6-(2-((2,6-Dichlorophenyl)methoxy)ethoxy)hexyl)amino)-1-hydroxyethyl)-2-(hydroxymethyl)phenol triphenylacetate, reference compound]
XRPD of micronized product versus starting material [1]: identical to that of the starting material
particle size distribution Dv50 after micronization ([1]; fluid energy jet mill, N2): 4.2 μm
particle size distribution Dv90 after micronization ([1]; fluid energy jet mill, N2): 9.6 μm
visual solubility in 1,4-dioxane ([2]; 1,4-dioxane at 25° C.): freely soluble (a further 0.45 mL of the solvent was added and the Dissolving Procedure (see above) followed. If the compound was completely dissolved, it is freely soluble.)
solubility at 15 min ([2]; ethanol, 25 °C, ethanol at 25° C., read-out: visual solubility in ethanol): 10 to 33 mg/mL (≈ 20.6 to 67.8 mM)
solubility at 15 min ([2]; methanol, 25 °C, methanol at 25° C., read-out: visual solubility in methanol): 33 to 100 mg/mL (≈ 67.8 to 206 mM)
visual solubility in water [2]: insoluble
modifications in XRPD pattern after storage (structural stability) [3]: No significant modifications in XRPD pattern
hygroscopicity classification according to the European Pharmacopoeia (EP, version 7.0) [4]: non-hygroscopic
mass increase by dynamic vapor sorption analysis (hygroscopicity) [4]: 0.19%
stability / XRPD pattern after DVS analysis [4]: showed stability after DVS analysis

SMILES: OCc1cc([C@@H](O)CNCCCCCCOCCOCc2c(Cl)cccc2Cl)ccc1O [form II, vilanterol trifenatate]
XRPD of micronized product versus starting material [1]: identical to the one of the starting material
particle size distribution Dv90 after micronization ([1]; fluid energy jet mill, N2): below 10 μm
solubility at 15 min ([2]; ethanol, 50 °C, ethanol at 50° C., read-out: visual solubility in ethanol): 10 to 33 mg/mL (≈ 20.6 to 67.8 mM)
visual solubility in water [2]: insoluble
modifications in XRPD pattern after storage (structural stability) [3]: No significant modifications in XRPD pattern
hygroscopicity classification according to the European Pharmacopoeia (EP, version 7.0) [4]: non-hygroscopic; also recorded: not hygroscopic
mass increase by dynamic vapor sorption analysis (hygroscopicity) [4]: 0.04%
mass increase by dynamic vapor sorption analysis (hygroscopicity) ([4]; listed as polymorph II): 0.04%
Change In Mass (%) Desorption ([4]; Cycle 1, target RH 0.0%): −0.03351%
Change In Mass (%) Desorption ([4]; Cycle 1, target RH 10.0%): −0.01706%
Change In Mass (%) Desorption ([4]; Cycle 1, target RH 20.0%): −0.00684%
Change In Mass (%) Desorption ([4]; Cycle 1, target RH 30.0%): 0.00031%
Change In Mass (%) Desorption ([4]; Cycle 1, target RH 40.0%): 0.00692%
Change In Mass (%) Hysteresis ([4]; Cycle 1, target RH 40.0%): 0.00707%
Change In Mass (%) Sorption ([4]; Cycle 1, target RH 40.0%): −0.00015%
Change In Mass (%) Desorption ([4]; Cycle 1, target RH 50.0%): 0.01476%
Change In Mass (%) Hysteresis ([4]; Cycle 1, target RH 50.0%): 0.00868%
Change In Mass (%) Sorption ([4]; Cycle 1, target RH 50.0%): 0.00607%
Change In Mass (%) Desorption ([4]; Cycle 1, target RH 60.0%): 0.02244%
Change In Mass (%) Hysteresis ([4]; Cycle 1, target RH 60.0%): 0.00892%
Change In Mass (%) Sorption ([4]; Cycle 1, target RH 60.0%): 0.01353%
Change In Mass (%) Desorption ([4]; Cycle 1, target RH 70.0%): 0.03051%
Change In Mass (%) Hysteresis ([4]; Cycle 1, target RH 70.0%): 0.00892%
Change In Mass (%) Sorption ([4]; Cycle 1, target RH 70.0%): 0.0216%
Change In Mass (%) Desorption ([4]; Cycle 1, target RH 80.0%): 0.04181%
Change In Mass (%) Hysteresis ([4]; Cycle 1, target RH 80.0%): 0.0043%
Change In Mass (%) Sorption ([4]; Cycle 1, target RH 80.0%): 0.0375%
Change In Mass (%) Desorption ([4]; Cycle 1, target RH 90.0%): 0.05802%
Change In Mass (%) Sorption ([4]; Cycle 1, target RH 90.0%): 0.05802%
Change In Mass (%) Sorption ([4]; Cycle 2, target RH 0.0%): −0.03351%
Change In Mass (%) Sorption ([4]; Cycle 2, target RH 10.0%): −0.0229%
Change In Mass (%) Sorption ([4]; Cycle 2, target RH 20.0%): −0.01545%
Change In Mass (%) Sorption ([4]; Cycle 2, target RH 30.0%): −0.00907%
Change In Mass (%) Sorption ([4]; Cycle 2, target RH 40.0%): −0.00261%
Change In Mass (%) Sorption ([4]; Cycle 2, target RH 50.0%): 0.00277%
Change In Mass (%) Sorption ([4]; Cycle 2, target RH 60.0%): 0.01068%
Change In Mass (%) Sorption ([4]; Cycle 2, target RH 70.0%): 0.01821%
Change In Mass (%) Sorption ([4]; Cycle 2, target RH 80.0%): 0.03189%
Change In Mass (%) Sorption ([4]; Cycle 2, target RH 90.0%): 0.04819%
stability / XRPD pattern after DVS analysis [4]: showed stability after DVS analysis

SMILES: OCc1cc([C@@H](O)CNCCCCCCOCCOCc2c(Cl)cccc2Cl)ccc1O [form IV, vilanterol trifenatate]
DSC (onset) endo. degradation ([5]; listed as Form 4): endo. 189 °C degradation
DSC (onset) endo. melting ([5]; listed as Form 4): endo. 76 °C melting
Stability test (sealed vial 18 h) ([6]; listed as Form 4): Form 12
EGA ([7]; listed as Form 4): Cyclohexane
TGA overall weight loss ([7]; listed as Form 4): overall loss of 40% w/w/
Stability test (exposed sample 16 h) ([8]; listed as Form 4): Form 2

SMILES: OCc1cc([C@@H](O)CNCCCCCCOCCOCc2c(Cl)cccc2Cl)ccc1O [form V, vilanterol trifenatate]
DSC (onset) endo. Form 1 melting ([5]; endothermic event: Form 1 melting, listed as Form 5): endo. 134 °C Form 1
DSC (onset) endo. degradation ([5]; listed as Form 5): endo. 188 °C degradation
DSC (onset) endo. solvent loss ([5]; listed as Form 5): endo. 55-100 °C solvent loss
Stability test (sealed vial 18 h) ([6]; listed as Form 5): Strong crystanllinity
EGA ([7]; listed as Form 5): Methylcyclohexane
Stability test (exposed sample 16 h) ([8]; listed as Form 5): Form 2
